According to patent US12636290B2, “BET inhibitors for modulating DUX4 expression in FSHD” (Saint Louis University, priority 2018, dated 2026):
Like-named read-outs stand apart in the source and are kept apart here.

System: DUX4 expression (surrogate marker MBD3L2)
Assay: Screening: qPCR analysis of DUX4 target gene MBD3L2 in differentiating MB200 FSHD2 muscle cells
Type: cell-based
Details: Homo sapiens, 40 hours, DUX4 expression inferred from surrogate marker MBD3L2 expression (qPCR, normalized to RPL30)
Experimental: Cells and Cell Culture. Primary human myoblast cell lines, immortalized by retroviral transduction of cyclin-dependent kinase 4 (CDK4) and human telomerase reverse transcriptase (hTERT) (Stadler, et al., 2011), were obtained from the Fields Center at the University of Rochester (world-wide-web at urmc.rochester.edu/fields-center.aspx). Immortalized myoblasts were grown in Ham's F-10 Nutrient Mix (Gibco, Waltham, MA, USA) supplemented with 20% HyClone Fetal Bovine Serum (GE Healthcare Life Sciences, Pittsburgh, PA, USA), 100 U/100 μg penicillin/streptomycin (Gibco), 10 ng/ml recombinant human fibroblast growth factor (Promega Corporation, Madison, WI, USA) and 1 μM dexamethasone (Sigma-Aldrich). Differentiation of myoblasts into myotubes was achieved by switching the fully confluent myoblast monolayer into Dulbecco's Modified Eagle Medium (DMEM) (Gibco) containing 1% horse serum (Gibco), 100 U/100 μg penicillin/streptomycin, 10 μg/ml insulin (Sigma-Aldrich) and 10 μg/ml transferrin (Sigma-Aldrich) (HS/IT media) or DMEM:F12 Nutrient Mixture (1:1, Gibco) supplemented with 2% KnockOut Serum Replacement (Gibco), 100 U/100 μg penicillin/streptomycin, 10 μg/ml insulin and 10 μg/ml transferrin (KSR media) for 2-6 days.
Screening: qPCR analysis of DUX4 target genes MBD3L2. For screening compounds, differentiating MB200 FSHD2 muscle cells were exposed to BET inhibitors at a variety of concentrations for 40 hours to determine the effects of the drugs on DUX4 expression. Cell lysates were prepared using Cells-to-Ct Bulk Lysis Reagents (Invitrogen, Waltham, MA, USA). Gene expression was measured by quantitative polymerase chain reaction (qPCR) was carried out on a QuantStudio 5 (Applied Biosystems, Waltham, MA, USA) using TaqMan Gene Expression Assays (Applied Biosystems) and TaqMan Fast Virus 1-Step Master Mix (Invitrogen). The relative expression levels of DUX4 target gene methyl-CpG binding domain protein 3 like 2 (MBD3L2), was normalized to that of the reference gene ribosomal protein L30 (RPL30), which was included in multiplex (two gene) PCR reactions. TaqMan Gene Expression Assay ID numbers: MBD3L2, Hs00544743_m1; RPL30, Hs00265497_m1. Data is expressed as relative expression with the expression in absence of inhibitors set to one.
Analysis of MBD3L2 expression in cultured FSHD2 cells. DUX4 mRNA is present in very low levels, even in differentiating FSHD2 myoblasts, so DUX4 target gene MBD3L2 was used as a surrogate marker of DUX4 expression. FSHD2 patient derived muscle cells were analyzed to determine whether BET inhibitors affect MBD3L2 expression, indicating a reduction in DUX4 expression.

Row | SMILES | IC50 (read-out: DUX4* MT FSHD2: IC50) [nM] | IC50 (read-out: DUX4* MT FSHD2 IC50) [nM]
1 | C[C@@H]1CCC[C@H](C)N1CCOc1ccc(-c2ccc3nc(-c4cn(C)c(=O)c5[nH]ccc45)ccc3c2)cc1 [SLU-2279, 4-{6-[4-(2-((2R,6S)-2,6-dimethylpiperidin-1-yl)ethoxy)phenyl]quinolin-2-yl}-6-methyl-1H-pyrrolo[2,3-c]pyridin-7(6H)-one] | 420 | 420
2 | CN1CCN(CCOc2ccc(-c3ccc4nc(-c5cn(C)c(=O)c6[nH]ccc56)ccc4c3)cc2)C(C)(C)C1=O [SLU-2280, 6-methyl-4-{6-[4-(2-(2,2,4-trimethyl-3-oxopiperazin-1-yl)ethoxy)phenyl]quinolin-2-yl}-1H-pyrrolo[2,3-c]pyridin-7(6H)-one] | 120 | 120
3 | C#CCN1CCN(CCOc2ccc(-c3ccc4cc(-c5cn(C)c(=O)c6[nH]ccc56)ccc4n3)cc2)CC1=O [SLU-2281, 6-methyl-4-{2-[4-(2-(3-oxo-4-(prop-2-yn-1-yl)piperazin-1-yl)ethoxy)phenyl]quinolin-6-yl}-1H-pyrrolo[2,3-c]pyridin-7(6H)-one] | 130 | 130
4 | CCCN1CCN(CCOc2ccc(-c3ccc4cc(-c5cn(C)c(=O)c6[nH]ccc56)ccc4n3)cc2)CC1=O [SLU-2282, 6-methyl-4-{2-[4-(2-(3-oxo-4-propylpiperazin-1-yl)ethoxy)phenyl]quinolin-6-yl}-1H-pyrrolo[2,3-c]pyridin-7(6H)-one] | 54 | 54
5 | CN1CCN(CCOc2ccc(-c3ccc4nc(-c5cn(C)c(=O)c6[nH]ccc56)ccc4c3)cc2)CC1=O [SLU-2283, 6-methyl-4-{6-[4-(2-(4-methyl-3-oxopiperazin-1-yl)ethoxy)phenyl]quinolin-2-yl}-1H-pyrrolo[2,3-c]pyridin-7(6H)-one] | 160 | 160
6 | C[C@@H]1C(=O)N(C)CCCN1CCOc1ccc(-c2ccc3cc(-c4cn(C)c(=O)c5[nH]ccc45)ccc3n2)cc1 [SLU-2284, (R)-4-{2-[4-(2-(2,4-dimethyl-3-oxo-1,4-diazepan-1-yl)ethoxy)phenyl]quinolin-6-yl}-6-methyl-1H-pyrrolo[2,3-c]pyridin-7(6H)-one] | 90 | 90
7 | Cn1cc(-c2ccc3nc(-c4ccc(OCCN5CCC(F)(F)CC5)cc4)ccc3c2)c2cc[nH]c2c1=O [SLU-2285, 4-{2-[4-(2-(4,4-difluoropiperidin-1-yl)ethoxy)phenyl]quinolin-6-yl}-6-methyl-1H-pyrrolo[2,3-c]pyridin-7(6H)-one] | 570 | 570
8 | C[C@@H]1CN(C)C(=O)CN1CCOc1ccc(-c2ccc3cc(-c4cn(C)c(=O)c5[nH]ccc45)ccc3n2)cc1 [SLU-2286, (R)-4-{2-[4-(2-(2,4-dimethyl-5-oxopiperazin-1-yl)ethoxy)phenyl]quinolin-6-yl}-6-methyl-1H-pyrrolo[2,3-c]pyridin-7(6H)-one] | 63 | 63
9 | C[C@H]1CN(C)C(=O)CN1CCOc1ccc(-c2ccc3cc(-c4cn(C)c(=O)c5[nH]ccc45)ccc3n2)cc1 [SLU-2287, (S)-4-{2-[4-(2-(2,4-dimethyl-5-oxopiperazin-1-yl)ethoxy)phenyl]quinolin-6-yl}-6-methyl-1,6-dihydro-7H-pyrrolo[2,3-c]pyridin-7-one] | 108 | 108
10 | CN1CCN(CCOc2ccc(-c3ccc4cc(-c5cn(C)c(=O)c6[nH]ccc56)ccc4n3)cc2)CC1 [SLU-2288] | 250 | 250
11 | C[C@@H]1C(=O)N(C)CCN1CCCOc1cccc(-c2ccc3cc(-c4cn(C)c(=O)c5[nH]ccc45)ccc3n2)c1 [SLU-2292, (R)-4-{2-[3-(3-(2,4-dimethyl-3-oxopiperazin-1-yl)propoxy)phenyl]quinolin-6-yl}-6-methyl-1H-pyrrolo[2,3-c]pyridin-7(6H)-one] | 25 | 25
12 | C=CCn1cc(-c2ccc3nc(-c4ccc(OCCN5CCN(C)C(=O)[C@H]5C)cc4)ccc3c2)c2cc[nH]c2c1=O [SLU-2293, (R)-6-allyl-4-{2-[4-(2-(2,4-dimethyl-3-oxopiperazin-1-yl)ethoxy)phenyl]quinolin-6-yl}-1H-pyrrolo[2,3-c]pyridin-7(6H)-one] | 18 | 18
13 | COc1ccc2cc(-c3cn(C)c(=O)c4[nH]ccc34)ccc2n1 [SLU-2294, 4-(2-methoxyquinolin-6-yl)-6-methyl-1H-pyrrolo[2,3-c]pyridin-7(6H)-one] | 59 | 59
14 | CCn1cc(-c2ccc3cc(-c4ccc(OCCN5CCN(C)C(=O)[C@H]5C)cc4)ccc3n2)c2cc[nH]c2c1=O [SLU-2295, (R)-4-{6-[4-(2-(2,4-dimethyl-3-oxopiperazin-1-yl)ethoxy)phenyl]quinolin-2-yl}-6-ethyl-1H-pyrrolo[2,3-c]pyridin-7(6H)-one] | 51 | 51
15 | CCn1cc(-c2ccc3nc(-c4ccc(OCCN5CCN(C)C(=O)[C@H]5C)cc4)ccc3c2)c2cc[nH]c2c1=O [SLU-2296, (R)-4-{2-[4-(2-(2,4-dimethyl-3-oxopiperazin-1-yl)ethoxy)phenyl]quinolin-6-yl}-6-ethyl-1H-pyrrolo[2,3-c]pyridin-7(6H)-one] | 58 | 58
16 | C[C@@H]1C(=O)N(C)CCN1CCOc1ccc(-c2ccc3cc(-c4cn(C(F)F)c(=O)c5[nH]ccc45)ccc3n2)cc1 [SLU-2297, (R)-6-(difluoromethyl)-4-{2-[4-(2-(2,4-dimethyl-3-oxopiperazin-1-yl)ethoxy)phenyl]quinolin-6-yl}-1H-pyrrolo[2,3-c]pyridin-7(6H)-one] | 1600 | 1600
17 | Cn1cc(-c2ccc3ncccc3c2)c2cc[nH]c2c1=O [SLU-2298, 6-methyl-4-(quinolin-6-yl)-1H-pyrrolo[2,3-c]pyridin-7(6H)-one] | 113 | 113
18 | C[C@@H]1C(=O)N(C)CCN1CCCOc1ccc(-c2ccc3cc(-c4cn(C)c(=O)c5[nH]ccc45)ccc3n2)cc1 [SLU-2299, (R)-4-{2-[4-(3-(2,4-dimethyl-3-oxopiperazin-1-yl)propoxy)phenyl]quinolin-6-yl}-6-methyl-1H-pyrrolo[2,3-c]pyridin-7(6H)-one] | 3.4 | 3.4
19 | CN1CCCN(CCOc2ccc(-c3ccc4cc(-c5cn(C)c(=O)c6[nH]ccc56)ccc4n3)cc2)CC1=O [SLU-2300, 6-methyl-4-{2-[4-(2-(4-methyl-3-oxo-1,4-diazepan-1-yl)ethoxy)phenyl]quinolin-6-yl}-1H-pyrrolo[2,3-c]pyridin-7(6H)-one] | 49 | 49
20 | C[C@@H]1C(=O)N(C)CCN1CCOc1cccc(-c2ccc3cc(-c4cn(C)c(=O)c5[nH]ccc45)ccc3n2)c1 [SLU-2301, (R)-4-{2-[3-(2-(2,4-dimethyl-3-oxopiperazin-1-yl)ethoxy)phenyl]quinolin-6-yl}-6-methyl-1H-pyrrolo[2,3-c]pyridin-7(6H)-one] | 13 | 13
21 | C[C@@H]1C(=O)N(C)CCN1CCOc1ccc(-c2ccc3cc(-c4c[nH]c(=O)c5[nH]ccc45)ccc3n2)cc1 [SLU-2302, (R)-4-{2-[4-(2-(2,4-dimethyl-3-oxopiperazin-1-yl)ethoxy)phenyl]quinolin-6-yl}-1H-pyrrolo[2,3-c]pyridin-7(6H)-one] | 1800 | 1800
22 | C[C@@H]1C(=O)N(C)CCN1CCOc1ccc(-c2ccc3nc(-c4cn(C(F)F)c(=O)c5[nH]ccc45)ccc3c2)cc1 [SLU-2325, (R)-6-(difluoromethyl)-4-{6-[4-(2-(2,4-dimethyl-3-oxopiperazin-1-yl)ethoxy)phenyl]quinolin-2-yl}-1H-pyrrolo[2,3-c]pyridin-7(6H)-one] | 290 | 290
23 | C=CCn1cc(-c2ccc3cc(-c4ccc(OCCN5CCN(C)C(=O)[C@H]5C)cc4)ccc3n2)c2cc[nH]c2c1=O [SLU-2326, (R)-6-allyl-4-{6-[4-(2-(2,4-dimethyl-3-oxopiperazin-1-yl)ethoxy)phenyl]quinolin-2-yl}-1H-pyrrolo[2,3-c]pyridin-7(6H)-one] | 130 | 130
24 | C[C@@H]1C(=O)N(C)CCN1CCCN1CCN(c2ccc3cc(-c4cn(C)c(=O)c5[nH]ccc45)ccc3n2)CC1 [SLU-2346, (R)-4-{2-[4-(3-(2,4-dimethyl-3-oxopiperazin-1-yl)propyl)piperazin-1-yl]quinolin-6-yl}-6-methyl-1H-pyrrolo[2,3-c]pyridin-7(6H)-one] | 41 | 41
